Reference: ChEMBL document CHEMBL1201862, “PubChem BioAssay data set” (2004)
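Method: 48-hour compound exposure of cells in 96-well plates, five concentrations, linear interpolation of endpoints. At the GI50, growth is halved.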 Active and inactive are the calls of the source. Cut-off read from the data, not from the text of the source: active = GI50 up to about 1.1 µM and inactive = higher.

What was measured:
Assay in all cases: NCI tumour cell line growth inhibition, 48 h
NCI-H460 = system: NCI-H460
UACC-257 = system: UACC-257
K562 = system: K562
COLO 205 = system: COLO 205
SN12C = system: SN12C
MCF7 = system: MCF7
NCI/ADR-RES = system: NCI/ADR-RES
A549 = system: A549
Hs-578T = system: Hs-578T
HL-60 = system: HL-60
NCI-H522 = system: NCI-H522
BT-549 = system: BT-549
HCT-116 = system: HCT-116
A498 = system: A498
SF-295 = system: SF-295
SK-MEL-2 = system: SK-MEL-2
OVCAR-3 = system: OVCAR-3
OVCAR-8 = system: OVCAR-8
SNB-19 = system: SNB-19
TK-10 = system: TK-10
M14 = system: M14
NCI-H23 = system: NCI-H23
UACC-62 = system: UACC-62
MOLT-4 = system: MOLT-4
HCT-15 = system: HCT-15
KM12 = system: KM12
UO-31 = system: UO-31
CCRF-CEM = system: CCRF-CEM
SW-620 = system: SW-620
MDA-MB-435 = system: MDA-MB-435
EKVX = system: EKVX
MDA-MB-231 = system: MDA-MB-231
SK-MEL-28 = system: SK-MEL-28
DU-145 = system: DU-145
RXF 393 = system: RXF 393
786-0 = system: 786-0
RPMI-8226 = system: RPMI-8226
PC-3 = system: PC-3
T47D = system: T47D
SF-268 = system: SF-268
IGROV-1 = system: IGROV-1
NCI-H226 = system: NCI-H226
HT-29 = system: HT-29
CAKI-1 = system: CAKI-1
LOX IMVI = system: LOX IMVI
ACHN = system: ACHN
SK-MEL-5 = system: SK-MEL-5
SF-539 = system: SF-539
SR = system: SR
MDA-N = system: MDA-N
HCC 2998 = system: HCC 2998
OVCAR-5 = system: OVCAR-5
HOP-62 = system: HOP-62
Malme-3M = system: Malme-3M
OVCAR-4 = system: OVCAR-4
HOP-92 = system: HOP-92
U-251 = system: U-251
SK-OV-3 = system: SK-OV-3
SNB-75 = system: SNB-75

Compound: N#Cc1ccc(-c2nc3c(N)ncnc3o2)cc1
- GI50 (NCI-H460): > 100 µM (inactive)
- GI50 (UACC-257): > 100 µM (inactive)
- GI50 (K562): > 100 µM (inactive)
- GI50 (COLO 205): > 100 µM (inactive)
- GI50 (SN12C): > 100 µM (inactive)
- GI50 (MCF7): > 100 µM (inactive)
- GI50 (NCI/ADR-RES): > 100 µM (inactive)
- GI50 (A549): > 100 µM (inactive)
- GI50 (Hs-578T): > 100 µM (inactive)
- GI50 (HL-60): > 100 µM (inactive)
- GI50 (NCI-H522): > 100 µM (inactive)
- GI50 (BT-549): > 100 µM (inactive)
- GI50 (HCT-116): > 100 µM (inactive)
- GI50 (A498): > 100 µM (inactive)
- GI50 (SF-295): > 100 µM (inactive)
- GI50 (SK-MEL-2): > 100 µM (inactive)
- GI50 (OVCAR-3): > 100 µM (inactive)
- GI50 (OVCAR-8): > 100 µM (inactive)
- GI50 (SNB-19): > 100 µM (inactive)
- GI50 (TK-10): > 100 µM (inactive)
- GI50 (M14): > 100 µM (inactive)
- GI50 (NCI-H23): > 100 µM (inactive)
- GI50 (UACC-62): > 100 µM (inactive)
- GI50 (MOLT-4): > 100 µM (inactive)
- GI50 (HCT-15): > 100 µM
- GI50 (KM12): > 100 µM (inactive)
- GI50 (UO-31): > 100 µM (inactive)
- GI50 (CCRF-CEM): > 100 µM (inactive)
- GI50 (SW-620): > 100 µM (inactive)
- GI50 (MDA-MB-435): > 100 µM (inactive)
- GI50 (EKVX): > 100 µM (inactive)
- GI50 (MDA-MB-231): > 100 µM (inactive)
- GI50 (SK-MEL-28): > 100 µM (inactive)
- GI50 (DU-145): > 100 µM (inactive)
- GI50 (RXF 393): > 100 µM (inactive)
- GI50 (786-0): 63.8 µM (inactive)
- GI50 (RPMI-8226): > 100 µM (inactive)
- GI50 (PC-3): > 100 µM (inactive)
- GI50 (T47D): > 100 µM (inactive)
- GI50 (SF-268): > 100 µM (inactive)
- GI50 (IGROV-1): > 100 µM (inactive)
- GI50 (NCI-H226): > 100 µM (inactive)
- GI50 (HT-29): > 100 µM (inactive)
- GI50 (CAKI-1): > 100 µM (inactive)
- GI50 (LOX IMVI): > 100 µM (inactive)
- GI50 (ACHN): 75 µM (inactive)
- GI50 (SK-MEL-5): > 100 µM (inactive)
- GI50 (SF-539): > 100 µM (inactive)
- GI50 (SR): > 100 µM (inactive)
- GI50 (MDA-N): > 100 µM (inactive)
- GI50 (HCC 2998): > 100 µM (inactive)
- GI50 (OVCAR-5): > 100 µM (inactive)
- GI50 (HOP-62): 84.7 µM (inactive)

Compound: COC(=O)C1=C(C)NC(C)=C(C(=O)OC)C1c1ccc(N=O)cc1
- GI50 (NCI-H460): 18.9 µM (inactive)
- GI50 (Malme-3M): 11.5 µM (inactive)
- GI50 (UACC-257): 8.91 µM (inactive)
- GI50 (K562): 1.07 µM (active)
- GI50 (OVCAR-4): 3.14 µM (inactive)
- GI50 (COLO 205): 8.77 µM (inactive)
- GI50 (SN12C): 19.5 µM (inactive)
- GI50 (MCF7): 17.9 µM (inactive)
- GI50 (HOP-92): 2.54 µM (inactive)
- GI50 (NCI/ADR-RES): 20.8 µM (inactive)
- GI50 (A549): 24.5 µM (inactive)
- GI50 (Hs-578T): 7.31 µM (inactive)
- GI50 (HL-60): 1.3 µM (inactive)
- GI50 (NCI-H522): 1.15 µM (inactive)
- GI50 (BT-549): 8.87 µM (inactive)
- GI50 (HCT-116): 6.12 µM (inactive)
- GI50 (SF-295): 24.4 µM (inactive)
- GI50 (SK-MEL-2): 13.7 µM (inactive)
- GI50 (OVCAR-3): 13.6 µM (inactive)
- GI50 (OVCAR-8): 8.45 µM (inactive)
- GI50 (SNB-19): 38.7 µM (inactive)
- GI50 (TK-10): 15.4 µM (inactive)
- GI50 (M14): 11.2 µM (inactive)
- GI50 (U-251): 17.4 µM (inactive)
- GI50 (NCI-H23): 16.2 µM (inactive)
- GI50 (UACC-62): 15.3 µM (inactive)
- GI50 (MOLT-4): 3.33 µM (inactive)
- GI50 (HCT-15): 9.53 µM
- GI50 (KM12): 18.5 µM (inactive)
- GI50 (UO-31): 13.2 µM (inactive)
- GI50 (CCRF-CEM): 0.897 µM (active)
- GI50 (SW-620): 3.61 µM (inactive)
- GI50 (MDA-MB-435): 16.2 µM (inactive)
- GI50 (EKVX): 17 µM (inactive)
- GI50 (MDA-MB-231): 11.4 µM (inactive)
- GI50 (SK-MEL-28): 17.1 µM (inactive)
- GI50 (DU-145): 12.9 µM (inactive)
- GI50 (RXF 393): 8.22 µM (inactive)
- GI50 (786-0): 14.6 µM (inactive)
- GI50 (RPMI-8226): 1.58 µM (inactive)
- GI50 (PC-3): 15.8 µM (inactive)
- GI50 (T47D): 6.62 µM (inactive)
- GI50 (SF-268): 22.1 µM (inactive)
- GI50 (IGROV-1): 16.1 µM (inactive)
- GI50 (NCI-H226): 16 µM (inactive)
- GI50 (HT-29): 13.6 µM (inactive)
- GI50 (SK-OV-3): 16.6 µM (inactive)
- GI50 (CAKI-1): 8.3 µM (inactive)
- GI50 (LOX IMVI): 5.9 µM (inactive)
- GI50 (ACHN): 13.8 µM (inactive)
- GI50 (SK-MEL-5): 16.6 µM (inactive)
- GI50 (SF-539): 17.7 µM (inactive)
- GI50 (SNB-75): 13.4 µM (inactive)
- GI50 (SR): 0.776 µM (active)
- GI50 (MDA-N): 6.75 µM (inactive)
- GI50 (HCC 2998): 16.9 µM (inactive)
- GI50 (OVCAR-5): 17.5 µM (inactive)
- GI50 (HOP-62): 23.8 µM (inactive)
